Data published in patent publication US20210127673A1, “HERBICIDES” (SYNGENTA PARTICIPATIONS AG, priority 2016, published 2021).

Experiments:
Type in all cases: in vivo
Details in all cases: 1000 g/ha, evaluated after 13 days
[1] = system: Triticum aestivium (TRZAW); experiment: Pre-emergence herbicidal activity, Triticum aestivium; set-up: key: 5=total damage to plant; 0=no damage to plant
Experimental: (§1) Seeds of a variety of test species were sown in standard soil in pots: Triticum aestivium (TRZAW), Avena fatua (AVEFA), Alopecurus myosuroides (ALOMY), Echinochloa crus-galli (ECHCG), Lolium perenne (LOLPE), Zea Mays (ZEAMX), Abutilon theophrasti (ABUTH), Amaranthus retroflexus (AMARE) and Setaria faberi (SETFA). After cultivation for one day (pre-emergence) under controlled conditions in a glasshouse (at 24/16° C., day/night; 14 hours light; 65% humidity), the plants were sprayed with an aqueous spray solution derived from the formulation of the technical active ingredient in acetone/water (50:50) solution containing 0.5% Tween 20 (polyoxyethelyene sorbitan monolaurate, CAS RN 9005-64-5). The test plants were then grown in a glasshouse under controlled conditions (at 24/16°, day/night; 14 hours light; 65% humidity) and watered twice daily. After 13 days, the test was evaluated (5=total damage to plant; 0=no damage to plant).

[2] = system: Avena fatua (AVEFA); experiment: Pre-emergence herbicidal activity, Avena fatua; set-up: key: 5=total damage to plant; 0=no damage to plant
Experimental: as §1

[3] = system: Alopecurus myosuroides (ALOMY); experiment: Pre-emergence herbicidal activity, Alopecurus myosuroides; set-up: key: 5=total damage to plant; 0=no damage to plant
Experimental: as §1

[4] = system: Echinochloa crus-galli (ECHCG); experiment: Pre-emergence herbicidal activity, Echinochloa crus-galli; set-up: key: 5=total damage to plant; 0=no damage to plant
Experimental: as §1

[5] = system: Lolium perenne (LOLPE); experiment: Pre-emergence herbicidal activity, Lolium perenne; set-up: key: 5=total damage to plant; 0=no damage to plant
Experimental: as §1

[6] = system: Setaria faberi (SETFA); experiment: Pre-emergence herbicidal activity, Setaria faberi; set-up: key: 5=total damage to plant; 0=no damage to plant
Experimental: as §1

[7] = system: Triticum aestivium (TRZAW); experiment: Post-emergence herbicidal activity, Triticum aestivium; set-up: key: 5=total damage to plant; 0=no damage to plant
Experimental: (§2) Seeds of a variety of test species were sown in standard soil in pots: Triticum aestivium (TRZAW), Avena fatua (AVEFA), Alopecurus myosuroides (ALOMY), Echinochloa crus-galli (ECHCG), Lolium perenne (LOLPE), Zea Mays (ZEAMX), Abutilon theophrasti (ABUTH), Amaranthus retroflexus (AMARE) and Setaria faberi (SETFA). After 8 days cultivation (post-emergence) under controlled conditions in a glasshouse (at 24/16° C., day/night; 14 hours light; 65% humidity), the plants were sprayed with an aqueous spray solution derived from the formulation of the technical active ingredient in acetone/water (50:50) solution containing 0.5% Tween 20 (polyoxyethelyene sorbitan monolaurate, CAS RN 9005-64-5). The test plants were then grown in a glasshouse under controlled conditions (at 24/16° C., day/night; 14 hours light; 65% humidity) and watered twice daily. After 13 days, the test was evaluated (5=total damage to plant; 0=no damage to plant).

[8] = system: Avena fatua (AVEFA); experiment: Post-emergence herbicidal activity, Avena fatua
Experimental: as §2

[9] = system: Alopecurus myosuroides (ALOMY); experiment: Post-emergence herbicidal activity, Alopecurus myosuroides; set-up: key: 5=total damage to plant; 0=no damage to plant
Experimental: as §2

[10] = system: Echinochloa crus-galli (ECHCG); experiment: Post-emergence herbicidal activity, Echinochloa crus-galli; set-up: key: 5=total damage to plant; 0=no damage to plant
Experimental: as §2

[11] = system: Lolium perenne (LOLPE); experiment: Post-emergence herbicidal activity, Lolium perenne; set-up: key: 5=total damage to plant; 0=no damage to plant
Experimental: as §2

[12] = system: Setaria faberi (SETFA); experiment: Post-emergence herbicidal activity, Setaria faberi; set-up: key: 5=total damage to plant; 0=no damage to plant
Experimental: as §2

SMILES | Control of TRAZW after pre-emergence application (score 0-5) [1] | Control of AVEFA after pre-emergence application (score 0-5) [2] | Control of ALOMY after pre-emergence application (score 0-5) [3] | Control of ECHCG after pre-emergence application (score 0-5) [4] | Control of LOLPE after pre-emergence application (score 0-5) [5] | Control of SETFA after pre-emergence application (score 0-5) [6] | Control of TRAZW after post-emergence application (score 0-5) [7] | Control of AVEFA after post-emergence application (score 0-5) [8] | Control of ALOMY after post-emergence application (score 0-5) [9] | Control of ECHCG after post-emergence application (score 0-5) [10] | Control of LOLPE after post-emergence application (score 0-5) [11] | Control of SETFA after post-emergence application (score 0-5) [12]
CN(C(=O)OC(C)(C)C)c1ccc(-c2cc(F)c[n+]([O-])c2)nc1C(F)(F)F [Compound B1, tert-butyl N-[6-(5-fluoro-1-oxido-pyridin-1-ium-3-yl)-2-(trifluoromethyl)-3-pyridyl]-N-methyl-carbamate] | 0 | 2 | 0 | 2 | 1 | 4 | 0 | 4 | 1 | 4 | 2 | 5
CC(C)(C)OC(=O)N(Cc1ccc(F)cc1F)c1ccc(-c2cncc(F)c2)nc1C(F)(F)F [Compound B3] | 0 | 0 | 0 | 0 | 0 | 0 | 0 | 2 | 0 | 2 | 0 | 3
CN(C(=O)OC(C)(C)C)c1ccc(-c2cncc(C#N)c2)nc1C(F)(F)F [Compound B4] | 1 | 0 | 0 | 1 | 0 | 4 | 2 | 2 | 1 | 4 | 1 | 5
CC(C)(C)OC(=O)Nc1ccc(-c2cncc(C(F)F)c2)nc1C(F)(F)F [Compound B5] | 0 | 0 | 0 | 2 | 0 | 4 | 0 | 1 | 1 | 3 | 1 | 4
CC(C)(C)OC(=O)Nc1ccc(-c2cncc(Cl)c2)nc1C(F)(F)F [Compound B6] | 0 | 2 | 1 | 3 | 1 | 5 | 1 | 3 | 1 | 4 | 4 | 5
CC(C)(C)OC(=O)Nc1ccc(-c2cncc(OC(F)(F)F)c2)nc1C(F)(F)F [Compound B36] | 0 | 2 | 0 | 3 | 0 | 5 | 0 | 3 | 0 | 3 | 1 | 
CC(C)NC(=O)Nc1ccc(-c2cncc(F)c2)nc1C(F)(F)F [Compound B37, 1-[6-(5-fluoro-3-pyridyl)-2-(trifluoromethyl)-3-pyridyl]-3-isopropyl-urea] | 0 | 2 | 0 | 4 | 1 | 5 | 0 | 3 | 0 | 5 | 2 | 
CN(C)C(=O)Nc1ccc(-c2cncc(F)c2)nc1C(F)(F)F [Compound B52] | 0 | 2 | 0 | 3 | 1 |  | 0 | 3 | 0 | 4 | 3 | 5
O=C(Nc1ccc(-c2cncc(F)c2)nc1C(F)(F)F)OC1CCS(=O)(=O)C1 (stereo not shown) [Compound B66] | 0 | 2 | 0 | 3 | 1 | 5 | 1 |  | 0 | 4 |  | 5
CN(C)C(=O)N(C)c1ccc(-c2cncc(F)c2)nc1C(F)(F)F [Compound B74] | 1 | 2 | 1 | 4 | 1 | 5 | 0 |  | 0 | 4 |  | 5
COC(=O)c1nc(-c2cncc(F)c2)ccc1NC(=O)OC(C)(C)C [Compound B77] | 0 | 0 | 0 | 1 | 0 |  | 0 | 1 | 0 | 1 | 1 | 2
